In US20210000879A1, “METHODS AND COMPOSITIONS FOR MRNA-BASED MODULATION AND DETECTION OF CELL PHENOTYPES” (Georgia Tech Research Corporation, priority 2018, published 2021):

Legend:
[1] = test system: neonatal rat ventricular cardiomyocytes; assay: TBX18 IVT mRNA entry by qPCR normalized to GAPDH; format: cell-based; settings: 333 ng mRNA with ViroMer Red, 96-well plate
Procedure: Freshly-isolated neonatal rat ventricular cardiomyocytes were transfected with IVT mRNA for human TBX18 gene. Somatic gene transfer was performed by adding 333 ng of TBX18 IVT mRNA with a transfection reagent, ViroMer Red, to a well in a 96-well plate seeded with the neonatal rat ventricular cardiomyocytes. TBX18 IVT mRNA that successfully entered the cardiomyocytes were quantitated by quantitative real-time PCR (qPCR), and the TBX18 mRNA level was normalized to an endogenous housekeeping gene, GAPDH, over time.

[2] = test system: neonatal rat ventricular cardiomyocytes; assay: TBX18 protein expression by immunoblot normalized to GAPDH; format: cell-based; settings: 333 ng mRNA with ViroMer Red, 96-well plate
Procedure: Freshly-isolated neonatal rat ventricular cardiomyocytes were transfected with IVT mRNA for human TBX18 gene. Somatic gene transfer was performed by adding 333 ng of TBX18 IVT mRNA with a transfection reagent, ViroMer Red, to a well in a 96-well plate seeded with the neonatal rat ventricular cardiomyocytes. TBX18 protein expression from the transfected IVT mRNA in the cardiomyocytes were quantitated by specific antibodies to TBX18 on immunoblots and normalized to an endogenous housekeeping protein, GAPDH. […] The TBX18 protein expression was also transient, in line with the expression kinetics of the delivered mRNA. This transient expression of TBX18 closely mimicked its native expression during embryonic development, and is ideal for the intended purpose as a reprogramming agent to convert ordinary heart muscle cells to specialized cardiac pacemaker cells. In FIG. 12, D denotes days after transfection, and each time point consists of two technical replicates.

[3] = test system: neonatal rat ventricular cardiomyocytes; assay: Nuclear localization of TBX18 (FLAG) by immunostaining; format: cell-based; settings: 24 hrs post-transfection
Source text: TBX18 is a transcription factor, and thus should be targeted to the nuclei upon proper translation from mRNA. Freshly-isolated neonatal rat ventricular cardiomyocytes were transfected with IVT mRNA for human TBX18 gene. TBX18 mRNA was designed with a tag peptide (DYKDDDDK (SEQ ID NO:9, also known as a “FLAG” epitope) fused to the C-terminal end of TBX18 for subcellular identification of TBX18 with an antibody against FLAG. Sarcomeric alpha-actinin (α-SA) and DAPI label cardiomyocytes and all nuclei, respectively. Arrows (co-localization of FLAG and DAPI) indicate nuclear localization of TBX18 protein. Three transfection conditions were tested in a 24-well plate, and immunostaining was performed at 24 hrs post-transfection.

[4] = test system: neonatal rat ventricular myocytes; assay: Spontaneous electrical activity on multi-electrode array; format: cell-based; settings: control cardiomyocytes: infrequent and low rate activity
Procedure: Spontaneous electrical activity from neonatal rat ventricular myocytes were recorded on a non-invasive, multi-electrode array platform. […] The number of electrical activity (Count) was plotted as a function of spontaneous beating rates (in beats per minute, BPM) of the cardiomyocytes.

[5] = test system: complete atrioventricular block (CAVB) model in rats; assay: 3-lead surface ECG in rat complete atrioventricular block model; format: in vivo
Procedure: (§1) The inventors next studied the effects of administering TBX18 mRNA to a rat model of a complete atrioventricular block. […] In this study, the inventors created a complete atrioventricular block (CAVB) model in rats and monitored the rats for one week to confirm stable and persistent CAVB. Next, TBX18 mRNA was injected into the ventricular apex of each rat and a telemetry device was implanted. Some rats received a high dose of TBX18 mRNA, which was 300 μg TBX mRNA with 205 μl RNA free PBS. The inventors continuously monitored and recorded data from the telemetry device including electrocardiograms for 21 days. The inventors performed 3-lead surface ECGs on anesthetized animals on days 7, 14 and 21 with an isoproterenol challenge, and harvested the heart on day 21.
The inventors determined if there was antegrade conduction (meaning that the direction of cardiac conduction occurred from the SA node, AV node and down toward the apex of the heart) or retrograde conduction (meaning that the direction of cardiac conduction occurred from the site of TBX18 delivery which was the apex of the left ventricle). In order to determine this, the inventors determined a baseline ECG under anesthesia before TBX18 mRNA injection by recording three-lead surface ECGs for ten minutes while the rat was asleep under anesthesia. Recordings confirmed the presence of AV conduction block with multiple P waves between each QRS complex, inconsistent P-R intervals, and a relatively low heart rate of 100 bpm, compared to a healthy rate of over 300 bpm for rats.

[6] = test system: complete atrioventricular block (CAVB) model in rats; assay: Telemetry ECG in conscious rats with complete atrioventricular block; format: in vivo, rat; settings: for heart rate during isoproterenol treatment: conscious
Procedure: as §1
ECG data was then compared with telemetry data. Before injection of TBX18 mRNA, telemetry biopotential electrodes were sutured to the chest wall and housed in the abdominal cavity of the rat. Telemetry 2-lead ECG signal was recorded wirelessly for conscious, awake rats. The day before injection of TBX18 mRNA, AV block was present in ECG recordings with an average heart rate of 120 bpm, and these values were used as the baseline.

[7] = test system: rat model of complete heart block; assay: Effect of TGF-beta small molecule inhibitor on ventricular pacing with TBX18 mRNA; format: in vivo; settings: A83-01 released by osmotic pump
Procedure: On Day 0, an osmotic pump releasing A83-01 (a TGF-beta inhibitor, Sigma Aldrich) was implanted into the rats. On Day 1, TBX18 mRNA was injected into the rats and a telemetry device was also implanted. Two doses of TBX18 mRNA were given to the rats: (i) a low dose of 100 μg TBX18 mRNA with 68.4 μl RNA-free phosphate-buffered saline (PBS), or (ii) a high dose of 300 μg TBX18 mRNA with 205 μl RNA-free PBS. A continuous telemetry recording of each rat's electrocardiogram (ECG) was made for 21 days after implantation of the telemetry device. In addition, 3-lead surface ECGs were performed on anesthetized animals on Days 7, 14, and 21 along with an isoproterenol challenge. The heart was harvested from each animal on Day 21.
The inventors then determined the effects of including a TGF-beta small molecule inhibitor on ventricular pacing with TBX18 mRNA (FIG. 16).

[8] = test system: porcine model of complete heart block; assay: Porcine model of complete heart block; format: in vivo, pig
Source text: The inventors next sought to test the TBX18 mRNA in a large animal model, specifically a porcine model, of complete heart block. The inventors used a control of GFP mRNA+A83-01. On Day 1, the inventors created an intracardiac map by implanting a pacemaker and administered the TBX18 mRNA or control. Weeks 2, 4, and 6 after administration included an interrogation of the pacemaker and an isoproterenol challenge to measure the animals' maximum heart rate (max HR). In Week 6, arrythmia testing and intracardiac mapping were performed and vital organs were harvested. […] The proper diurnal response in TBX18-injected pig is in line with the average heart rate data from FIG. 18.

In the case of “TBX18 mRNA: IVT mRNA for human TBX18 gene, with FLAG tag peptide fused to the C-terminal end of TBX18”, the “entry of IVT mRNA into cardiomyocytes” value [1] is reported as “efficient entry”, the “time post-transfection to TBX18 protein expression” value [2] is reported as “less than 6 hours” and the “cardiomyocytes positive for nuclear TBX18 (FLAG positive)” value (“cardiomyocytes positive” below) ([3]; 0.5 μg of IVT mRNA+0.2 μl of ViroMer Red) is reported as 4%. The “cardiomyocytes positive” value ([3]; 1 μg of IVT mRNA+0.1 μl of ViroMer Red) was 2%, the “cardiomyocytes positive” value ([3]; 1 μg of IVT mRNA+0.2 μl of ViroMer Red) was 21% and the spontaneous pacemaker activity [4] was “highly active, high rate pacemaker activity”. For the same substance, the biological cardiac pacing ([5]; focal intramyocardial injection into ventricular apex) was “created in vivo biological cardiac pacing”, the “conduction vector (cardiac axis mapping)” value ([5]; one week after injection, baseline 77 degrees) was 49 degrees and the “heart rate with isoproterenol” value ([5]; one week after injection, isoproterenol challenge) was 229 bpm. The average heart rate ([5]; one week after injection, under anesthesia, baseline 100 bpm) was 120 bpm, the average heart rate ([5]; three weeks after injection) was 137 bpm and the “conduction vector of normal QRS complexes” value ([5]; three weeks after injection, anterograde) was 48 degrees. For the same substance, the “conduction vector of transient QRS complexes with isoproterenol” value ([5]; three weeks after injection, isoproterenol, retrograde) was −110 degrees, the “conduction vector of PVCs” value ([5]; three weeks after injection, retrograde) was −116 degrees and the “ventricular pacing by continuous recording of heart rate and heart rate histograms” value ([6]; histograms on Days 21 after injection) was “created ventricular pacing”. The “heart rate during isoproterenol treatment” value ([6]; one week after delivery, baseline 120 bpm) was 265 bpm, the “heart rate during isoproterenol treatment” value ([6]; three weeks after delivery) was 260 bpm and the “heart rate during isoproterenol treatment” value ([6]; two weeks after delivery) was 206 bpm. The “effect on ventricular pacing / block” value [7] was “created a complete ventricular block”, the “R-R interval as the pig becomes awake in the morning” value ([8]; diurnal response) was “shorter R-R interval (faster heart rate)” and the “time after delivery within which ventricular pacing was created” value ([8]; pig, in vivo) was 7 to 10 days.
